Source: US20070037788A1, “Tricyclic steroid hormone nuclear receptor modulators” (Eli Lilly and Company, priority 2003, published 2007)
Structures can show the parent of a compound that is named as a salt.

Molecular target: T1, human GR (glucocorticoid receptor) (Homo sapiens, UniProt P04150)
T1 construct: expressed in transfected cells; host or cells: 293 cells
T1 sequence (P04150 1-777): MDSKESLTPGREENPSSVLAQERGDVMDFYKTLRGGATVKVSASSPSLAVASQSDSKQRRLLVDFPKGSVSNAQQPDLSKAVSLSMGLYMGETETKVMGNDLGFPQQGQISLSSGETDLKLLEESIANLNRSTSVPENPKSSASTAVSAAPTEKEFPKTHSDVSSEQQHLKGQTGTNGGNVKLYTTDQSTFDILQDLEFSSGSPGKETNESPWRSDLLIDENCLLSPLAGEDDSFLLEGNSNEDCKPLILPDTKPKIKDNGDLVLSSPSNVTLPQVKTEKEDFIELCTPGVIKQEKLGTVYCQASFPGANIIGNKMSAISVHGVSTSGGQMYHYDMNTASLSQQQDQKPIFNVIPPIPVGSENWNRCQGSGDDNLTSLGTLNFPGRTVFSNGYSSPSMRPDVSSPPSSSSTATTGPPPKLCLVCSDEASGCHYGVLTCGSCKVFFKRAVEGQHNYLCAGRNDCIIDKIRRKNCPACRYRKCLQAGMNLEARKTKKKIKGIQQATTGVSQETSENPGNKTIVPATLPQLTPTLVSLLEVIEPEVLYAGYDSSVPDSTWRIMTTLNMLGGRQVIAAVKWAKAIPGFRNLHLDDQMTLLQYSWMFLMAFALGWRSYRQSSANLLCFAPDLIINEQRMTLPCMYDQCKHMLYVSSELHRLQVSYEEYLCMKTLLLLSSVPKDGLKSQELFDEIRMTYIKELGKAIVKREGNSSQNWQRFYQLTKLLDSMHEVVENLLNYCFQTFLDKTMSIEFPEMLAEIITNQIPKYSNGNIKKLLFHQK
Assay: Alternative Binding Assay Protocol (Method 2), GR
Conditions: 293-GR lysate, 3H-dexamethasone
Description: Cell lysates from 293 cells overexpressing human GR (glucocorticoid receptor), AR (androgen receptor), MR (mineralocorticoid receptor) or PR (progesterone receptor) are used for competition binding assays to determine Ki values for test compounds. Briefly, competition binding assays are run in a buffer containing 20 mM Hepes, pH 7.6, 0.2 mM EDTA, 75 mM NaCl, 1.5 mM MgCl2, 20% glycerol, 20 mM sodium molybdate, 0.2 mM DTT, 20 ug/ml aprotinin and 20 ug/ml leupeptin, using either 0.3 nM ^3H-dexamethasone for GR binding, 0.36 nM ^3H-methyltrienolone for AR binding, 0.25 nM ^3H-aldosterone for MR binding, or 0.29 nM ^3H-methyltrienolone for PR binding, and either 20 ug 293-GR lysate, 22 ug 293-AR lysate, 20 ug 293-MR lysate or 40 ug 293-PR lysate per well. Competing compounds are added at various concentrations in half-log increments. Non-specific binding is determined in the presence of 500 nM dexamethasone for GR binding, 500 nM aldosterone for MR binding, or 500 nM methyltrienolone for AR and PR binding. The binding reaction (140 μl) is incubated for overnight at 4° C., then 70 μl of cold charcoal-dextran buffer (containing per 50 ml of assay buffer, 0.75 g of charcoal and 0.25 g of dextran) is added to each reaction. Plates are mixed 8 minutes on an orbital shaker at 4° C. Plates are then centrifuged at 3,000 rpm at 4° C. for 10 minutes. An aliquot of 120 μl of the mix is transferred to another 96-well plate and 175 μl of Wallac Optiphase “Hisafe 3” scintillation fluid is added to each well. Plates are sealed and shaken vigorously on an orbital shaker. After an incubation of 2 hrs, plates are read in a Wallac Microbeta counter. The data is used to calculate an IC50 and % Inhibition at 10 μM. The Kd for ^3H-dexamethasone for GR binding, ^3H-methyltrienolone for AR binding, ^3H-aldosterone for MR binding, or ^3H-methyltrienolone for PR binding, is determined by saturation binding. The IC50 values for compounds are converted to Ki using Cheng-Prusoff equation and the Kd determined by saturation binding assay.

Row | Ki [µM] | SMILES
1 | < 1 | CC(C)(CN1CCOCC1)n1c(=O)[nH]c2cc(/C=C3\c4ccccc4COc4cc(F)ccc43)ccc21 [Example 1, 1-(1,1-Dimethyl-2-morpholin-4-yl-ethyl)-5-(3-fluoro-6H-dibenzo[b,e]oxepin-11-ylidenemethyl)-1,3-dihydro-benzoimidazol-2-one, E isomer]
2 | < 1 | CN1CCC(n2c(=O)[nH]c3cc(/C=C4/c5ccc(F)cc5OCc5c(F)cccc54)ccc32)CC1 [Example 2, 5-(3,7-Difluoro-6H-dibenzo[b,e]oxepine-11-ylidenemethyl)-1-(1-methyl-piperidin-4-yl)-1,3-dihydro-benzoimidazol-2-one, E-isomer]
3 | < 0.5 | CN1CCC(n2c(=O)[nH]c3cc(/C=C4\c5ccccc5COc5cc(F)ccc54)ccc32)CC1 [Example 3, 5-(3-Fluoro-6H-dibenzo[b,e]oxepin-11-ylidenemethyl)-1-(1-methyl-piperidin-4-yl)-1,3-dihydro-benzoimidazol-2-one, E isomer]
4 | < 1 | CN1CCC(n2c(=O)[nH]c3cc(/C=C4\c5ccc(F)cc5COc5cc(F)ccc54)ccc32)CC1 [Example 4, 5-(3,8-Difluoro-6H-dibenzo[b,e]oxepin-11-ylidenemethyl)-1-(1-methyl-piperidin-4-yl) -1,3-dihydro-benzoimidazol-2-one, E isomer]
5 | < 0.5 | CCN1CC[C@@H](n2c(=O)[nH]c3cc(/C=C4\c5ccc(F)cc5COc5cc(F)ccc54)ccc32)C1 [Example 5, 5-(3,8-Difluoro-6H-dibenzo[b,e]oxepin-11-ylidenemethyl)-1-(1-ethyl-pyrrolidin-3-yl) -1,3-dihydro-benzoimidazol-2-one, HOAc salt, E isomer, chiral]
6 | < 0.5 | CN1CCN(CCCn2c(=O)[nH]c3cc(/C=C4\c5ccccc5COc5cc(F)ccc54)ccc32)CC1 [Example 7]
7 | < 0.5 | CN1CCN(CCn2c(=O)[nH]c3cc(/C=C4\c5ccccc5COc5cc(F)ccc54)ccc32)CC1 [Example 8]
8 | < 0.5 | O=c1[nH]c2cc(/C=C3\c4ccccc4COc4cc(F)ccc43)ccc2n1[C@H]1CCNC1 [Example 9]
9 | < 0.5 | C[C@H](CN1CCOCC1)n1c(=O)[nH]c2cc(/C=C3\c4ccccc4COc4cc(F)ccc43)ccc21 [Example 10]
10 | < 0.5 | C[C@@H](CN1CCOCC1)n1c(=O)[nH]c2cc(/C=C3\c4ccccc4COc4cc(F)ccc43)ccc21 [Example 11]
11 | < 1 | O=c1[nH]c2cc(/C=C3\c4ccccc4COc4cc(F)ccc43)ccc2n1C1CCNCC1 [Example 12]
12 | < 0.5 | C[C@@H]1CN(CCn2c(=O)[nH]c3cc(/C=C4\c5ccccc5COc5cc(F)ccc54)ccc32)C[C@H](C)O1 [Example 13]
13 | < 0.5 | O=c1[nH]c2cc(/C=C3\c4ccccc4COc4cc(F)ccc43)ccc2n1CCN1CCNCC1 [Example 14]
14 | < 0.5 | O=c1[nH]c2cc(/C=C3\c4ccccc4COc4cc(F)ccc43)ccc2n1C1CCNC1 (centres unmarked) [Example 15]
15 | < 0.5 | O=c1[nH]c2cc(/C=C3\c4ccccc4COc4cc(F)ccc43)ccc2n1C1CCNC1 (centres unmarked) [Example 16]
16 | < 0.5 | O=c1[nH]c2cc(/C=C3\c4ccccc4COc4cc(F)ccc43)ccc2n1C1CNC1 [Example 17]
17 | < 1 | O=c1[nH]c2cc(/C=C3\c4ccccc4COc4cc(F)ccc43)ccc2n1C[C@@H]1CCCN1 [Example 18]
18 | < 1 | O=c1[nH]c2cc(/C=C3\c4ccccc4COc4cc(F)ccc43)ccc2n1C[C@H]1CCCN1 [Example 19]
19 | < 0.5 | CN1CCN(CCn2c(=O)[nH]c3cc(/C=C4\c5ccc(F)cc5COc5cc(F)ccc54)ccc32)CC1 [Example 20]
20 | < 0.5 | O=c1[nH]c2cc(/C=C3\c4ccc(F)cc4COc4cc(F)ccc43)ccc2n1CCN1CCCC1 [Example 21]
21 | < 0.5 | C[C@H](CN1CCOCC1)n1c(=O)[nH]c2cc(/C=C3\c4ccc(F)cc4COc4cc(F)ccc43)ccc21 [Example 22]
22 | < 1 | C[C@@H](CN1CCOCC1)n1c(=O)[nH]c2cc(/C=C3\c4ccc(F)cc4COc4cc(F)ccc43)ccc21 [Example 23]

Row | Ki [µM] | SMILES
23 | < 1 | CC(C)(CN1CCOCC1)n1c(=O)[nH]c2cc(/C=C3\c4ccc(F)cc4COc4cc(F)ccc43)ccc21 [Example 24]
24 | < 0.5 | C[C@@H]1CN(CCn2c(=O)[nH]c3cc(/C=C4\c5ccc(F)cc5COc5cc(F)ccc54)ccc32)C[C@H](C)O1 [Example 25]
25 | < 0.5 | O=c1[nH]c2cc(/C=C3\c4ccc(F)cc4COc4cc(F)ccc43)ccc2n1CCCN1CCOCC1 [Example 26]
26 | < 0.5 | O=c1[nH]c2cc(/C=C3\c4ccc(F)cc4COc4cc(F)ccc43)ccc2n1C1CCNCC1 [Example 28]
27 | < 0.5 | O=c1[nH]c2cc(/C=C3\c4ccc(F)cc4COc4cc(F)ccc43)ccc2n1[C@H]1CCNC1 [Example 29]
28 | < 0.5 | O=c1[nH]c2cc(/C=C3\c4ccc(F)cc4COc4cc(F)ccc43)ccc2n1C1CNC1 [Example 30]
29 | < 0.5 | O=c1[nH]c2cc(/C=C3\c4ccc(F)cc4COc4cc(F)ccc43)ccc2n1[C@@H]1CCNC1 [Example 31]
30 | < 0.5 | CN1CC[C@H](n2c(=O)[nH]c3cc(/C=C4\c5ccc(F)cc5COc5cc(F)ccc54)ccc32)C1 [Example 32]
31 | < 0.5 | CCN1CC[C@H](n2c(=O)[nH]c3cc(/C=C4\c5ccc(F)cc5COc5cc(F)ccc54)ccc32)C1 [Example 33]
32 | < 0.5 | CN1CCN(CCn2c(=O)[nH]c3cc(/C=C4/c5ccc(F)cc5OCc5c(F)cccc54)ccc32)CC1 [Example 34]
33 | < 1 | O=c1[nH]c2cc(/C=C3/c4ccc(F)cc4OCc4c(F)cccc43)ccc2n1CCN1CCCC1 [Example 35]
34 | < 0.5 | O=c1[nH]c2cc(/C=C3/c4ccc(F)cc4OCc4c(F)cccc43)ccc2n1C1CCNCC1 [Example 36]
35 | < 0.5 | O=c1[nH]c2cc(/C=C3/c4ccc(F)cc4OCc4c(F)cccc43)ccc2n1[C@H]1CCNC1 [Example 37]
36 | < 0.5 | C[C@H](CN1CCOCC1)n1c(=O)[nH]c2cc(/C=C3/c4ccc(F)cc4OCc4c(F)cccc43)ccc21 [Example 38]
37 | < 1 | C[C@@H](CN1CCOCC1)n1c(=O)[nH]c2cc(/C=C3/c4ccc(F)cc4OCc4c(F)cccc43)ccc21 [Example 39]
38 | < 1 | CC(C)(CN1CCOCC1)n1c(=O)[nH]c2cc(/C=C3/c4ccc(F)cc4OCc4c(F)cccc43)ccc21 [Example 40]
39 | < 0.5 | C[C@@H]1CN(CCn2c(=O)[nH]c3cc(/C=C4/c5ccc(F)cc5OCc5c(F)cccc54)ccc32)C[C@H](C)O1 [Example 41]
40 | < 0.5 | O=c1[nH]c2cc(/C=C3/c4ccc(F)cc4OCc4c(F)cccc43)ccc2n1CCCN1CCOCC1 [Example 42]
41 | < 0.5 | O=c1[nH]c2cc(/C=C3/c4ccc(F)cc4OCc4c(F)cccc43)ccc2n1CCN1CCNCC1 [Example 43]
42 | < 1 | CCN1CC[C@H](n2c(=O)[nH]c3cc(/C=C4/c5ccc(F)cc5OCc5c(F)cccc54)ccc32)C1 [Example 44]
43 | < 10 | CN1CC[C@H](n2c(=O)[nH]c3cc(/C=C4/c5ccc(F)cc5OCc5c(F)cccc54)ccc32)C1 [Example 45]
44 | < 1 | CCN1CC[C@@H](n2c(=O)[nH]c3cc(/C=C4/c5ccc(F)cc5OCc5c(F)cccc54)ccc32)C1 [Example 46]
